# Article PMC4798879 (Nature chemical biology, 2016)
# How the values were obtained:
# H2122 cells = test: Compound stability in cell lines, H2122; type: in vitro ADME, human
# [1] = test system: panel of 12 NSCLC cell lines; test: Concentration-response toxicity across panel of NSCLC cell lines; type: cell-based, human
# [2] = Pharmacokinetic studies in CD-1 mice; type: in vivo, mouse; settings: 6 and 20 mg/kg
# H2122 = test: Compound concentration response, viability; type: cell-based, human; settings: read-out: IC50 (concentration that resulted in 50% less viability); H2122 cells
# H2122 derived tumors = test: Xenograft experiment, H2122 derived tumors in Nod-Scid mice; type: in vivo, mouse; settings: 20 mg/kg once daily
# sebocytes = test: In vivo toxicity study, sebocytes in skin of CD-1 mice; parameters: species or system mouse; settings: 20 mg/kg once a day for two weeks
# [3] = Body weight loss in xenograft experiments; type: in vivo, mouse; settings: once daily dosing
smiles,measurement,setting,value
CCCCc1ccc(N=CNO)c(C)c1 [HET0016],effect on binding of SW208108 to SCD,"SCD (p37 and p30); H2122, 0.1 µM SW208108",inhibited the binding of SW208108 to SCD in a dose dependent fashion
same,effect on ability of dMe-SW208108 to bind SCD,"SCD (p37 and p30); H2122, 0.1 µM dMe-SW208108",no effect
same,effect on SW208108 metabolism,H2122 cells,inhibited both the loss of SW208108 and the generation of dMe-SW208108
COc1ccc(CCNC(=O)C(=O)Nc2ccc(Cl)cc2)cc1 [SW027951],toxicity in eight of the remaining ten cell lines,[1]; 6 μM,insensitive
same,toxicity in HCC44 and HCC95,[1]; HCC44 and HCC95 cell lines,intermediate toxicity
O=C(NCCC1CC1)c1ccc(N2CCN(C(=O)c3cc(F)ccc3C(F)(F)F)CC2)nn1 [Xenon-45],pharmacokinetic properties,[2],favorable pharmacokinetic properties
same,IC50,H2122,95 nM
same,growth of H2122 tumors,H2122 derived tumors,no efficacy
same,sebocytes in hair follicles of skin,sebocytes,devoid of sebocytes
same,Weight loss,[3],up to 7%
